Experiments:
[1] = biological target: cdk4/D (Homo sapiens, UniProt P11802); test: Cyclin-Dependent Kinase 4 (cdk4) Assay; type: biochemical
Procedure: A typical assay, for instance, measures inhibitory activity against the cyclin D dependent kinase 4 enzyme (cdk4/D). […] The cdk4 assay was carried out as follows.
Cyclin-Dependent Kinase 4 (cdk4) Assay
Enzyme assays for IC50 determinations (Tables 1 and 2) and kinetic evaluation were performed in 96 well filter plates (Millipore MADVN6550). The total volume was 0.1 mL containing a final concentration of 20 mM TRIS (tris[hydroxymethyl]aminomethane), at pH 7.4, 50 mM NaCl, 1 mM dithiothreitol, 10 mM MgCl2, 25 µM ATP containing 0.25 µCi of [^32P]ATP, 20 ng of cdk4, 1 µg of retinoblastoma, and appropriate dilutions of a compound of the present invention. All components except the ATP were added to the wells, and the plate was placed on a plate mixer for 2 minutes. The reaction was started by adding [^32P]ATP and the plate was incubated at 25°C for 15 minutes. The reaction was terminated by addition of 0.1 mL of 20% trichloroacetic acid (TCA). The plate was kept at 4°C for at least 1 hour to allow the substrate to precipitate. The wells were then washed five times with 0.2 mL of 10% TCA and ^32P incorporation was determined with a beta plate counter (Wallac Inc., Gaithersburg, MD).

[2] = biological target: cdk2/cyclinE (Homo sapiens, UniProt P24941); test: Cyclin-Dependent Kinase Assay cdk2/cyclinE; type: biochemical
Procedure: (§1) Cyclin-Dependent Kinase Assays (cdk2/cyclinE, cdk2/cyclinA, cdc2/cyclinB)
(§2) All components except the ATP were added to the wells, and the plate was placed on a plate mixer for 2 minutes. The reaction was begun by addition of [^32P]ATP, and the plate was incubated at 25°C for 15 minutes. The reaction was terminated by addition of 0.1 mL of 20% TCA. The plate was kept at 4°C for at least 1 hour to allow the substrate to precipitate. The wells were then washed five times with 0.2 mL of 10% TCA and ^32P incorporation determined with a beta plate counter (Wallac Inc., Gaithersburg, MD).

[3] = biological target: cdk2/cyclinA (Homo sapiens, UniProt P24941); test: Cyclin-Dependent Kinase Assay cdk2/cyclinA; type: biochemical
Procedure: as §1, §2

[4] = biological target: cdc2/cyclinB (Homo sapiens, UniProt P06493); test: Cyclin-Dependent Kinase Assay cdc2/cyclinB; type: biochemical
Procedure: as §1, §2

[5] = biological target: T1, PDGF-β receptor tyrosine kinase (Mus musculus, UniProt P05622); test: PDGF Receptor Tyrosine Kinase Assay; type: biochemical; details: glutamate-tyrosine co-polymer substrate, 50 µM ATP
T1 construct: amplify a fragment of DNA that codes for the intracellular tyrosine kinase domain; made in house; host or cells: SF9 insect cells (baculovirus); crude cell lysate used
Excerpt: (§3) PDGF and FGF Receptor Tyrosine Kinase Assays
(§4) Full-length cDNAs for the mouse PDGF-β and human FGF-1 (flg) receptor tyrosine kinases were obtained from J. Escobedo and prepared as described in J. Biol. Chem., 1991;262:1482-1487. PCR primers were designed to amplify a fragment of DNA that codes for the intracellular tyrosine kinase domain. The fragment was inserted into a baculovirus vector, cotransfected with AcMNPV DNA, and the recombinant virus isolated. SF9 insect cells were infected with the virus to overexpress the protein, and the cell lysate was used for the assay. Assays were performed in 96-well plates (100 µL/incubation/well), and conditions were optimized to measure the incorporation of ^32P from γ^32P-ATP into a glutamate-tyrosine co-polymer substrate. Briefly, to each well was added 82.5 µL of incubation buffer containing 25 mM Hepes (pH 7.0), 150 mM NaCl, 0.1% Triton X-100, 0.2 mM PMSF, 0.2 mM Na3VO4, 10 mM MnCl2, and 750 µg/mL of Poly (4:1) glutamate-tyrosine followed by […] of inhibitor and 5 µL of enzyme lysate (7.5 µg/µL FGF-TK or 6.0 µg/µL PDGF-TK) to initiate the reaction. Following a 10 minute incubation at 25°C, 10 mL of γ^32P-ATP (0.4 µCi plus 50 µM ATP) was added to each well, and samples were incubated for an additional 10 minutes at 25°C. The reaction was terminated by the addition of 100 µL of 30% trichloroacetic acid (TCA) containing 20 mM sodium pyrophosphate and precipitation of material onto glass fiber mats (Wallac). Filters were washed three times with 15% TCA containing 100 mM sodium pyrophosphate, and the radioactivity retained on the filters counted in a Wallac 1250 Betaplate reader. Nonspecific activity was defined as radioactivity retained on the filters following incubation of samples with buffer alone (no enzyme). Specific enzymatic activity (enzyme plus buffer) was defined as total activity minus nonspecific activity. […]

[6] = biological target: T2, c-Src (Homo sapiens, UniProt P12931); test: c-Src protein kinase assay; type: biochemical; details: poly GluTyr substrate, 5 µM ATP
T2 construct: made in house; host or cells: baculovirus infected insect cells
Procedure: The assay was carried out as follows: c-Src kinase was purified from baculovirus infected insect cell lysates using an antipeptide monoclonal antibody directed against the N-terminal amino acids (amino acids 2-17) of c-Src. The antibody, covalently linked to 0.65 µm latex beads, was added to a suspension of insect cell lysis buffer comprised of 150 mM NaCl, 50 mM Tris pH 7.5, 1 mM DTT, 1% NP-40, 2 mM EGTA, 1 mM sodium vanadate, 1 mM PMSF, 1 µg/mL each of leupeptin, pepstatin, and aprotinin. Insect cell lysate containing c-Src protein was incubated with these beads for 3 to 4 hours at 4°C with rotation. At the end of the lysate incubation, the beads were rinsed three times in lysis buffer, resuspended in lysis buffer containing 10% glycerol, and frozen. These latex beads were thawed, rinsed three times in assay buffer (40 mM Tris, pH 7.5, […]) and suspended in the same buffer. In a Millipore 96-well plate with a 0.65 µm polyvinylidine membrane bottom were added the reaction components: 10 µL c-Src beads, 10 µL of 2.5 mg/mL poly GluTyr substrate, 5 µM ATP containing 0.2 µCi labeled ^32P-ATP, 5 µL DMSO containing inhibitors or as a solvent control, and buffer to make the final volume 125 µL. The reaction was started at room temperature by addition of the ATP and quenched 10 minutes later by the addition of 125 µL of 30% TCA, 0.1 M sodium pyrophosphate for 5 minutes on ice. […] The filters were then punched, counted in a liquid scintillation counter, and the data examined for inhibitory activity in comparison to a known inhibitor such as erbstatin. […]

[7] = biological target: T3, FGF-1 (flg) receptor tyrosine kinase (Homo sapiens, UniProt P11362); test: FGF Receptor Tyrosine Kinase Assay; type: biochemical; details: glutamate-tyrosine co-polymer substrate, 50 µM ATP
T3 construct: amplify a fragment of DNA that codes for the intracellular tyrosine kinase domain; made in house; host or cells: SF9 insect cells (baculovirus); crude cell lysate used
Procedure: as §3
as §4, with “PCR” for “Full-length cDNAs for the mouse PDGF-β and human FGF-1 (flg) receptor tyrosine kinases were obtained from J. Escobedo and prepared as described in J. Biol. Chem., 1991;262:1482-1487. PCR”, “Following a 10 minute incubation at 25°C, 10 mL of γ^32P-ATP (0.4 µCi plus 50 µM ATP) was added to each well, and samples were incubated for an additional 10 minutes at 25°C.” left out, “Filters were washed three times with 15% TCA containing 100 mM sodium pyrophosphate, and the radioactivity retained on the filters counted in a Wallac 1250 Betaplate reader.” left out

[8] = tested on: human umbilical vein endothelial cells; test: Human Umbilical Vein Endothelial Cell (HUVEC) Proliferation Assay; type: cell-based; details: 96 h, four days incubation, Sulphorhodamine B staining
Procedure: The compounds of Formula I are useful for treating cell proliferative disorders concerning angiogenesis and have been evaluated in a human umbilical vein endothelial cell in vitro assay. The assay described below is used to determine the anti-proliferative effects of the invention compounds on human umbilical vein endothelial cells, and the results are shown in Table 7.
Human Umbilical Vein Endothelial Cell (HUVEC) Proliferation Assay
Ninety-six well tissue culture plates are seeded with 100 µL of cells in all wells of rows A->G with row H remaining empty as a blank. HUVEC (Clonetics, San Diego, CA) are grown in endothelial growth medium (EGM media, Clonetics), containing 2% fetal bovine serum. The cell seed density for HUVEC cells is 20,000 per mL. C6 cells (ATCC Cat. No. CCL-107) are seeded at 6000 per mL in F10 medium (nutrient mixture Hemes) supplemented with 15% horse serum, 2.5% fetal bovine serum, and 6.0 mL 200 mM Glutamine per 600 mL medium. A90 cells (Suny, Buffalo, NY) are also seeded at 6000 per mL, but they are grown in RPMI 1640 (Roswell Park Memorial Institute) plus 10% fetal bovine serum. Unless noted otherwise, tissue culture media and components are from GIBCO. The cells are allowed to incubate at 37°C, 5% CO2, and 100% relative humidity for 16-24 hours.
Invention compounds are prepared by dissolving them in DMSO at a concentration of 5 mM, followed by dilution to 50 µM in EGM media. One hundred microliters of the compounds are applied to duplicate wells in column 1 of the previously prepared cell plates. Column 1 row H receives 100 µL of EGM media. The compounds in column 1 are diluted across the plates using serial twofold dilutions.
The plates are incubated as above for an additional four days before being stained with Sulphorhodamine B. Staining is performed as follows: The media is removed from the plates, and the cells are fixed using 10% trichloroacetic acid for 30 minutes at 4°C. Following fixation, the plates are washed five times with distilled water after which 100 µL of Sulphorhodamine B is added to each well. Sulphorhodamine B is dissolved in 1% acetic acid to a concentration of .075%. Following staining, excess stain is removed from the wells, and the plates are washed four times with 1% acetic acid. The plates are allowed to air dry before the bound dye is solubilized in 100 µL of 10 mM unbuffered TRIS base. Absorbance is measured on a 96 well plate reader at […] using a reference filter wavelength of 630 nm. […] Sulphorhodamine B and TRIS are from Sigma Chemical Company. Acetic acid and trichloroacetic acid are from Mallinckrodt AR.

Sequence of cdc2/cyclinB (P06493 whole entry): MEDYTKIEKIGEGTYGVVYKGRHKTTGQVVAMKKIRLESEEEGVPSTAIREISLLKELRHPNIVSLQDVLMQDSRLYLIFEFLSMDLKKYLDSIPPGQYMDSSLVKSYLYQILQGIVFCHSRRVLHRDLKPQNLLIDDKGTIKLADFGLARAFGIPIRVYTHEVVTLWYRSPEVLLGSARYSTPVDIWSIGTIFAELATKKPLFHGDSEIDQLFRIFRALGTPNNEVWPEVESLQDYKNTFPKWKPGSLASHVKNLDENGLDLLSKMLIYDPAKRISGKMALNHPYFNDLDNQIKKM
Sequence of cdc2/cyclinB (P14635 whole entry, further chain): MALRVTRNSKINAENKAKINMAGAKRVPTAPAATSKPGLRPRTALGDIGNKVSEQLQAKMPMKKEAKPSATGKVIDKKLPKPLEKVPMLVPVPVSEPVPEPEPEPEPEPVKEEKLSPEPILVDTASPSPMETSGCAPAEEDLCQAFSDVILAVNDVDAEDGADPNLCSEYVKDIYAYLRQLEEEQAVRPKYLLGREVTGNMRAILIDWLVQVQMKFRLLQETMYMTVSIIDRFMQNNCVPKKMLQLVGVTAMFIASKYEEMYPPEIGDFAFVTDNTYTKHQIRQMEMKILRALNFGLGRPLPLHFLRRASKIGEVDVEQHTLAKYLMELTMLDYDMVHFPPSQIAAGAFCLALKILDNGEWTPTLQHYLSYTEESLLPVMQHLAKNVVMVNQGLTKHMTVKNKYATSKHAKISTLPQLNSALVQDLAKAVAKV
T3 sequence (P11362 478-767 limits assumed): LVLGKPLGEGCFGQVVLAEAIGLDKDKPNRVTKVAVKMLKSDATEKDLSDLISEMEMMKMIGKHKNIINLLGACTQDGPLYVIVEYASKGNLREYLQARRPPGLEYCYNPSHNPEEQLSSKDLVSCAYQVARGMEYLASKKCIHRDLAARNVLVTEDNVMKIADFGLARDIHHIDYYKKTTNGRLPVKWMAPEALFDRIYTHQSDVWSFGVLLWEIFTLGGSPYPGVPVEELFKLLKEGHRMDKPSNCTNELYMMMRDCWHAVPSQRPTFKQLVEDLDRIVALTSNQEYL
T1 sequence (P05622 599-961 limits assumed): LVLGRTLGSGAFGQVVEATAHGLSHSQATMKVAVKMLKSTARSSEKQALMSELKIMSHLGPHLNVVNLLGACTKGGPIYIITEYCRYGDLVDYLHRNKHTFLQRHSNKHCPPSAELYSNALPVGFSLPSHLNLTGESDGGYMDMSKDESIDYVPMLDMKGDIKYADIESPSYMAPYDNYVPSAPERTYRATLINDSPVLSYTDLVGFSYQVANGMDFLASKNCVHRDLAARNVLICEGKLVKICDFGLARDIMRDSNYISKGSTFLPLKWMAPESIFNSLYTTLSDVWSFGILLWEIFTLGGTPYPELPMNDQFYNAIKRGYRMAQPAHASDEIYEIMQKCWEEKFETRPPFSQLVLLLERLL
Sequence of cdk4/D (P11802 whole entry): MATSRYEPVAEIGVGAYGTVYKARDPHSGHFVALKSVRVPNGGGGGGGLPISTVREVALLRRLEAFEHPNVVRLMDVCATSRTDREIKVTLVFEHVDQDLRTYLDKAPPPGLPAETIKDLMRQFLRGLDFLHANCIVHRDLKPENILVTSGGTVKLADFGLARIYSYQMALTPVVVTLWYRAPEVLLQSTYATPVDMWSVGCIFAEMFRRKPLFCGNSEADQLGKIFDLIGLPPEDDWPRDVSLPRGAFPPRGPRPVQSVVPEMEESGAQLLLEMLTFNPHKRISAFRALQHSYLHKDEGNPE
Sequence of cdk4/D (P24385 whole entry, further chain): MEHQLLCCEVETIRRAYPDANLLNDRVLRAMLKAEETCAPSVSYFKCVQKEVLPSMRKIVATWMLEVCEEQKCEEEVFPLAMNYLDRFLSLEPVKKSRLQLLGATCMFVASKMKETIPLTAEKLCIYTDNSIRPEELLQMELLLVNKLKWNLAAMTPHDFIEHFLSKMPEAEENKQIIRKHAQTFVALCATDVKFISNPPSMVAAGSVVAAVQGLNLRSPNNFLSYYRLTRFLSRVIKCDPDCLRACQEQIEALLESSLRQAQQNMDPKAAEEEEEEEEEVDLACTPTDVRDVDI
T2 sequence (P12931 whole entry): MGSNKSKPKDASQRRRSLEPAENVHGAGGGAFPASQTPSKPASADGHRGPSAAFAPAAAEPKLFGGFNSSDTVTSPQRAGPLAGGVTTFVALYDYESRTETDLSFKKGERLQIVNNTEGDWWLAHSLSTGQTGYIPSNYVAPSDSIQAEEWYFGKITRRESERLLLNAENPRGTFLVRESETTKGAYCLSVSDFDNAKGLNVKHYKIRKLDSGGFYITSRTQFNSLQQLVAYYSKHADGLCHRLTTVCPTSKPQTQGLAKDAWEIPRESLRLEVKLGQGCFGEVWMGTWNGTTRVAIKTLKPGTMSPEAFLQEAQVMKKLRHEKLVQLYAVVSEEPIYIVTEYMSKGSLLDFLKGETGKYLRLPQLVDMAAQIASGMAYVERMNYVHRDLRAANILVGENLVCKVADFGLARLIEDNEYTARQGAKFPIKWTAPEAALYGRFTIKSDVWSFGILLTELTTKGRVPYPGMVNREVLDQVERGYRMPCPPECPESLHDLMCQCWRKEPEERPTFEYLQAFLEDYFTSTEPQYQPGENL

How did the IC50 [1] turn out when O=C1NCc2cnc(Nc3ccc(N4CCCC(O)C4)cc3)nc2N1C1CCCC1 (stereo not drawn) [Example 16, 1-Cyclopentyl-7-[4-(3-hydroxypiperidin-1-yl)phenylamino]-3,4-dihydropyrimido[4,5-d]pyrimidin-2(1H)-one] was run?
Its IC50 is 630 nM.

And the IC50 [2]?
The IC50 was 1500 nM.

And the IC50 [3]?
The IC50 was 640 nM.

What about the IC50 [4] of the same compound?
Its IC50 is 14900 nM.

And the IC50 [5]?
Its IC50 is 0.83 µM.

What about the IC50 [6] of the same compound?
Its IC50 is 4120 nM.

CC1CN(c2ccc(Nc3ncc4c(n3)N(C3CCCC3)C(=O)NC4)cc2)CC(C)N1 (stereo not drawn) [Example 18, 1-Cyclopentyl-7-[4-(3,5-dimethylpiperazin-1-yl)phenylamino]-3,4-dihydropyrimido[4,5-d]pyrimidin-2(1H)-one] was tested. Which IC50 [1] did it give?
The IC50 was 350 nM.

And the IC50 [2]?
Its IC50 is 2000 nM.

And the IC50 [5]?
Its IC50 is 0.21 µM.

And the IC50 [6]?
Its IC50 is 400 nM.

What does the source list for O=c1ncc2cnc(Nc3ccc(-n4cccn4)cc3)nc2n1C1CCCC1 [Example 36, 1-Cyclopentyl-7-[4-(pyrazol-1-yl)phenylamino]pyrimido[4,5-d]pyrimidin-2(1H)-one]?
IC50 [1]: 435 nM; IC50 [2]: 2440 nM; IC50 [3]: 1330 nM; IC50 [4]: 16100 nM; IC50 [5]: > 50 µM; IC50 [7]: > 50 µM

For CCN(CC)CCOc1ccc(Nc2ncc3c(n2)N(CC)C(=O)N(c2cc(OC)cc(OC)c2)C3)cc1 [Example 53a, 7-[4-(2-Diethylamino-ethoxy)-phenylamino]-3-(3,5-dimethoxy-phenyl)-1-ethyl-3,4-dihydro-pyrimido[4,5-d]pyrimidin-2(1H)-one], which IC50 [5] is on record?
The IC50 was < 0.5 µM.

And the IC50 [7]?
Its IC50 is 0.02 µM.

How did the IC50 [8] turn out when CCN1C(=O)N(c2cc(OC)cc(OC)c2)Cc2cnc(NCCCCN3CCN(C)CC3)nc21 [Example 58, 3-(3,5-Dimethoxy-phenyl)-1-ethyl-7-[4-(4-methyl-piperazin-1-yl)-butylamino]-3,4-dihydro-pyrimido[4,5-d]pyrimidin-2(1H)-one] was run?
Its IC50 is 134 nM.

For CCN1C(=O)N(c2cc(OC)cc(OC)c2)Cc2cnc(NCCCCCN3CCN(C)CC3)nc21 [Example 59, 3-(3,5-Dimethoxy-phenyl)-1-ethyl-7-[5-(4-methyl-piperazin-1-yl)-pentylamino]-3,4-dihydro-pyrimido[4,5-d]pyrimidin-2(1H)-one], which IC50 [8] is on record?
Its IC50 is 112 nM.

How did the IC50 [8] turn out when CCN(CC)CCCNc1ncc2c(n1)N(CC)C(=O)N(c1cc(OC)cc(OC)c1)C2 [Example 60, 7-(3-Diethylamino-propylamino)-3-(3,5-dimethoxy-phenyl)-1-ethyl-3,4-dihydro-pyrimido[4,5-d]pyrimidin-2(1H)-one] was run?
Its IC50 is 943 nM.

How did the IC50 [8] turn out when CCN(CC)CCCCNc1ncc2c(n1)N(CC)C(=O)N(c1cc(OC)cc(OC)c1Cl)C2 [Example 65, 3-(2-Chloro-3,5-dimethoxy-phenyl)-7-(4-diethylamino-butylamino)-1-ethyl-3,4-dihydro-pyrimido[4,5-d]pyrimidin-2(1H)-one] was run?
The IC50 was 36 nM.

How did the IC50 [1] turn out when C=CCn1c(=O)c2cnc(Nc3ccc(N4CCN(C)CC4)cc3)nc2n(C(C)C)c1=O [Example 70, 3-Allyl-1-isopropyl-7-[4-(4-methylpiperazin-1-yl)phenylamino]-1H-pyrimido[4,5-d]pyrimidine-2,4-dione] was run?
Its IC50 is 3450 nM.

And the IC50 [3]?
The IC50 was > 40000 nM.

And the IC50 [4]?
Its IC50 is > 40000 nM.

What about the IC50 [5] of the same compound?
The IC50 was > 50 µM.

What about the IC50 [7] of the same compound?
The IC50 was > 50 µM.

Source: patent EP1801112A1, “Bicyclic pyrimidines and bicyclic 3,4-dihydropyrimidines as inhibitors of cellular proliferation” (Warner-Lambert Company LLC, priority 1998, dated 1999)
